Experiments:
Cholinesterase [1] = target: T1, Cholinesterase (Homo sapiens, UniProt P06276)
Description: In vitro inhibition of Butyrylcholinesterase from human plasma.

[2] = target: Sodium-dependent serotonin transporter (Rattus norvegicus, UniProt P31652)
Acetylcholinesterase [3] = target: T2, Acetylcholinesterase (Rattus norvegicus, UniProt P37136)
T2 sequence (P37136 whole entry): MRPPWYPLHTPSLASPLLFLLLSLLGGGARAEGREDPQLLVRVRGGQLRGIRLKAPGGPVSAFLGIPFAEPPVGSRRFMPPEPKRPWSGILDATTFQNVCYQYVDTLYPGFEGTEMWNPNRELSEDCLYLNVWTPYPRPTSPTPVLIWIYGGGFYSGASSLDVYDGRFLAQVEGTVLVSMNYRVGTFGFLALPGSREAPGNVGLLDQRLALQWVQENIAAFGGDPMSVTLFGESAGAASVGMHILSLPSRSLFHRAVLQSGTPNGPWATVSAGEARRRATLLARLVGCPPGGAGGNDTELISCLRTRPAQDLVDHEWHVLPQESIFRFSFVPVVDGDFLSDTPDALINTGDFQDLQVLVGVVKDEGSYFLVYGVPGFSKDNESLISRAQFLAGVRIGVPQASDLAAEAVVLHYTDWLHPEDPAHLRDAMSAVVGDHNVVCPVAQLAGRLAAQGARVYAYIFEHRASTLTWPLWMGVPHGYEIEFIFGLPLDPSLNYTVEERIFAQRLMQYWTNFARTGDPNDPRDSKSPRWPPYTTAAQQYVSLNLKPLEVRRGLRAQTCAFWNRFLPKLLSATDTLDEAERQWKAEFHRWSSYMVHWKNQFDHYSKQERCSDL
Description: In vitro inhibition of acetylcholinesterase, isolated from rat brain.

[4] = target: Norepinephrine transporter (Rattus norvegicus, UniProt Q9WTR4)
Norepinephrine transporter, sequence (Q9WTR4 whole entry): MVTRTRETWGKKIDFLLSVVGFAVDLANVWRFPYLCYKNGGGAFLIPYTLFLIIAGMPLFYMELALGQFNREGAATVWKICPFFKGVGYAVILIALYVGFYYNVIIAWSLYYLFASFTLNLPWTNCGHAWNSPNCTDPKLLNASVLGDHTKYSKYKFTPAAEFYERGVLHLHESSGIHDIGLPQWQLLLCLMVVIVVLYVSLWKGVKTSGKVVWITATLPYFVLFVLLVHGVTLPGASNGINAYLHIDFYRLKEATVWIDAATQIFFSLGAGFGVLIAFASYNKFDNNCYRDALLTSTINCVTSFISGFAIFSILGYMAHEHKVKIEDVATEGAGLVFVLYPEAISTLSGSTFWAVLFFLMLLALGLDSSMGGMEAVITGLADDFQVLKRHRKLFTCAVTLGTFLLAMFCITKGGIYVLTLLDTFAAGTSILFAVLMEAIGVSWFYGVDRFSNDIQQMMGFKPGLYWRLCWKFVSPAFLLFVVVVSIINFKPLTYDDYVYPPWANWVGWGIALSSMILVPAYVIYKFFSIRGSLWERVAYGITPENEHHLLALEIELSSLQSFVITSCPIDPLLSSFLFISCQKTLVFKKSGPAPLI
Description: Inhibition of neuronal uptake of Noradrenaline in rat brain homogenate

Cholinesterase [5] = target: T1, Cholinesterase; test: Activity against Butyrylcholinesterase (BChE) from human plasma at 100 uM; No block; format: cell-free
Acetylcholinesterase [6] = target: T2, Acetylcholinesterase; test: Inhibitory activity against acetylcholinesterase, isolated from rat brain at 100 uM; No block
Cholinesterase [7] = target: T1, Cholinesterase; test: Activity against Butyrylcholinesterase (BChE) from human plasma at 100 uM; no block; format: cell-free

Sodium-dependent serotonin transporter, sequence (P31652 whole entry): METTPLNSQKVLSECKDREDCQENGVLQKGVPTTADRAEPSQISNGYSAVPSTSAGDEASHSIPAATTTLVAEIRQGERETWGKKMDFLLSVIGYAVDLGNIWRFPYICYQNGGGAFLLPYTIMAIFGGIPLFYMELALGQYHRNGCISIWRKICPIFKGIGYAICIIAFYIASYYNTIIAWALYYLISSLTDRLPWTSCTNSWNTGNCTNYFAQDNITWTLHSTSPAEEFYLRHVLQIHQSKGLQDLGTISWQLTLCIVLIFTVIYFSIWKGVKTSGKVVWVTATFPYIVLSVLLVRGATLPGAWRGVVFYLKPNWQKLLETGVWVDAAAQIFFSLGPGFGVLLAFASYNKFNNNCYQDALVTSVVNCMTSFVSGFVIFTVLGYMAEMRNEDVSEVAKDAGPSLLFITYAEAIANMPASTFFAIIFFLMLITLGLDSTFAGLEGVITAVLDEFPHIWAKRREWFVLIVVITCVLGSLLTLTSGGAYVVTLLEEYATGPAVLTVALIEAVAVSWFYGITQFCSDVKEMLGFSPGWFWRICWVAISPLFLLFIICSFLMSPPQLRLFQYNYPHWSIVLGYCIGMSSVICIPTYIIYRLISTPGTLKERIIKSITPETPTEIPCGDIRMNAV
T1 sequence (P06276 whole entry): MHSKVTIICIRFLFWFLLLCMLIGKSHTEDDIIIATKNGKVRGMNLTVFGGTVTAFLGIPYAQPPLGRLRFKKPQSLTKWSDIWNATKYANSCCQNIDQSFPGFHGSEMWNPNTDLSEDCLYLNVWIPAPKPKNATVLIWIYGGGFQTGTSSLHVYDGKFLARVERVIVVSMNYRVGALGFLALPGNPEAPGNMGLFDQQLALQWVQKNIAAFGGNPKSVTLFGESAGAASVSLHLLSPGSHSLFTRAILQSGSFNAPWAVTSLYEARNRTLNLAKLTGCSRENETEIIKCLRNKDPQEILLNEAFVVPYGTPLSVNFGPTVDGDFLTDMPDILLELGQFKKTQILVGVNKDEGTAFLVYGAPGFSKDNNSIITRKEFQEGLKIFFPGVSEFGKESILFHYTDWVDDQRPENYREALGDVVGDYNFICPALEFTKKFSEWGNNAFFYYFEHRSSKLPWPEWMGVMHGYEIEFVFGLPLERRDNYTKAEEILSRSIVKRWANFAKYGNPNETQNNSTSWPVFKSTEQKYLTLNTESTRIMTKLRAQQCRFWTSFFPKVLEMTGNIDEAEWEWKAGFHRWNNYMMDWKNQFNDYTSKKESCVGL

SMILES | IC50 (Cholinesterase [1]) [µM] | IC50 [2] [µM] | IC50 (Acetylcholinesterase [3]) [µM] | IC50 [4] [µM] | IC50 (Cholinesterase [5]) | IC50 (Acetylcholinesterase [6]) | IC50 (Cholinesterase [7])
CC1Cc2c(nc3ccccc3c2N)C1(C)O (centres undefined) | 12.2 | 4.4 | 134 |  |  |  | 
Nc1c2c(nc3ccccc13)-c1ccccc1NCC2 | 18.9 | 4.2 | 69.4 | 3 |  |  | 
Nc1c2ccccc2nc2c1cnc1cc(Cl)ccc12 |  | > 95 |  | 0.2 | No block | No block | 
COc1ccc2c(c1)CCc1c-2nc2ccccc2c1N |  | 5.8 | 47.5 | 1.4 |  |  | no block
Nc1c2c(nc3ccccc13)CCCc1ccccc1-2 | 26.4 | 0.02 |  |  |  |  | 
Nc1c2c(nc3ccccc13)CCC2 | 0.052 | 21 |  | 0.6 |  |  | 
Nc1c2c(nc3ccccc13)CCCCCC2 | 2.3 | 1.1 |  | 0.8 |  |  | 
CCCCC1=C(C)Cc2c1nc1ccccc1c2N | 42 | 13 | 25 |  |  |  | 
CC1=C(C)c2nc3ccccc3c(N)c2C1 | 5.9 | 5.1 | 3.5 |  |  |  | 
CCCCC1(O)c2nc3ccccc3c(N)c2CC1C (centres undefined) | 81 | 7.1 | 91 | 12 |  |  | 
COc1ccc2c(c1)CCCc1c-2nc2ccccc2c1N | > 100 | 0.7 |  | 3.6 |  |  | 
Nc1c2c(nc3ccccc13)-c1ccccc1NCCC2 | 6.7 | 6.9 | 391 | 2.5 |  |  | 
Nc1c2c(nc3ccccc13)CCCCC2 | 0.014 | 3.6 | 0.039 | 6.9 |  |  | 
CC12CCC(c3c1nc1ccccc1c3N)C2(C)C (centres undefined) | 88 | 13 | 110 |  |  |  | 
Nc1c2c(nc3ccccc13)-c1ccccc1CCC2 | 36 | 4.7 | 166 | 1.8 |  |  | 
Nc1c2c(nc3ccccc13)-c1cccc(Cl)c1CC2 | 10.3 | 14.3 | 144 | 41 |  |  | 
Nc1c2c(nc3ccccc13)C1CCC2C1 (centres undefined) | 0.041 | 0.2 |  | 6.1 |  |  | 
Nc1c2c(nc3ccccc13)-c1ccccc1C2 | 3.1 | 2.2 |  | 2.3 |  |  | 
Nc1c2c(nc3ccccc13)-c1ccccc1CC2 | 3.3 | 4.6 |  | 12.1 |  |  | 

— ChEMBL document CHEMBL1130398 (J Med Chem, 1997)
